Assay results reported in article PMC4832243, “Discovery of Potent VEGFR-2 Inhibitors based on Furopyrimidine and Thienopyrimidne Scaffolds as Cancer Targeting Agents” (Scientific Reports, 2016).

Legend:
Assay type in all cases: cell-based
[1] = tested on: ACHN; assay: NCI 60 cell line panel (SRB), ACHN; conditions: Homo sapiens, Renal Cancer, single dose of 10 μM, read-out: Cell Growth Percent
[2] = tested on: HT29; assay: NCI 60 cell line panel (SRB), HT29; conditions: Homo sapiens, HT-29; HT29, Colon Cancer; single dose of 10 μM; read-out: Cell Growth Percent
[3] = tested on: SW-620; assay: NCI 60 cell line panel (SRB), SW-620; conditions: Homo sapiens; SW-620, Colon Cancer; single dose of 10 μM; read-out: Cell Growth Percent
[4] = tested on: SN12C; assay: NCI 60 cell line panel (SRB), SN12C; conditions: Homo sapiens, Renal Cancer, single dose of 10 μM, read-out: Cell Growth Percent
[5] = tested on: UO-31; assay: NCI 60 cell line panel (SRB), UO-31; conditions: Homo sapiens; UO-31, Renal Cancer; single dose of 10 μM; read-out: Cell Growth Percent
[6] = tested on: M14; assay: NCI 60 cell line panel (SRB), M14; conditions: Homo sapiens; M14, Melanoma; single dose of 10 μM; read-out: Cell Growth Percent
[7] = tested on: UACC-257; assay: NCI 60 cell line panel (SRB), UACC-257; conditions: Homo sapiens; UACC-257, Melanoma; single dose of 10 μM; read-out: Cell Growth Percent
[8] = tested on: PC-3; assay: NCI 60 cell line panel (SRB), PC-3; conditions: Homo sapiens; PC-3, Prostate Cancer; single dose of 10 μM; read-out: Cell Growth Percent
[9] = tested on: SK-MEL-28; assay: NCI 60 cell line panel (SRB), SK-MEL-28; conditions: Homo sapiens; SK-MEL-28, Melanoma; single dose of 10 μM; read-out: Cell Growth Percent
[10] = tested on: LOX IMVI; assay: NCI 60 cell line panel (SRB), LOX IMVI; conditions: Homo sapiens, Melanoma, single dose of 10 μM, read-out: Cell Growth Percent
[11] = tested on: MDA-MB-435; assay: NCI 60 cell line panel (SRB), MDA-MB-435; conditions: Homo sapiens; MDA-MB-435, Melanoma; single dose of 10 μM; read-out: Cell Growth Percent
[12] = tested on: NCI-H460; assay: NCI 60 cell line panel (SRB), NCI-H460; conditions: Homo sapiens; NCI-H460, Non-Small Cell Lung Cancer; single dose of 10 μM; read-out: Cell Growth Percent
[13] = tested on: MDA-MB-231/ATCC; assay: NCI 60 cell line panel (SRB), MDA-MB-231/ATCC; conditions: Homo sapiens, Breast Cancer, single dose of 10 μM, read-out: Cell Growth Percent
[14] = tested on: RPMI-8226; assay: NCI 60 cell line panel (SRB), RPMI-8226; conditions: Homo sapiens; RPMI-8226, Leukemia; single dose of 10 μM; read-out: Cell Growth Percent
[15] = tested on: HS 578T; assay: NCI 60 cell line panel (SRB), HS 578T; conditions: Homo sapiens, Breast Cancer, single dose of 10 μM, read-out: Cell Growth Percent
[16] = tested on: OVCAR-8; assay: NCI 60 cell line panel (SRB), OVCAR-8; conditions: Homo sapiens; OVCAR-8, Ovarian Cancer; single dose of 10 μM; read-out: Cell Growth Percent
[17] = tested on: SF-295; assay: NCI 60 cell line panel (SRB), SF-295; conditions: Homo sapiens; SF-295, CNS Cancer; single dose of 10 μM; read-out: Cell Growth Percent
[18] = tested on: SNB-19; assay: NCI 60 cell line panel (SRB), SNB-19; conditions: Homo sapiens; SNB-19, CNS Cancer; single dose of 10 μM; read-out: Cell Growth Percent
[19] = tested on: EKVX; assay: NCI 60 cell line panel (SRB), EKVX; conditions: Homo sapiens, Non-Small Cell Lung Cancer, single dose of 10 μM, read-out: Cell Growth Percent
[20] = tested on: HCT-15; assay: NCI 60 cell line panel (SRB), HCT-15; conditions: Homo sapiens; HCT-15, Colon Cancer; single dose of 10 μM; read-out: Cell Growth Percent
[21] = tested on: OVCAR-4; assay: NCI 60 cell line panel (SRB), OVCAR-4; conditions: Homo sapiens; OVCAR-4, Ovarian Cancer; single dose of 10 μM; read-out: Cell Growth Percent
[22] = tested on: A549/ATCC; assay: NCI 60 cell line panel (SRB), A549/ATCC; conditions: Homo sapiens, Non-Small Cell Lung Cancer, single dose of 10 μM, read-out: Cell Growth Percent
[23] = tested on: OVCAR-5; assay: NCI 60 cell line panel (SRB), OVCAR-5; conditions: Homo sapiens; OVCAR-5, Ovarian Cancer; single dose of 10 μM; read-out: Cell Growth Percent
[24] = tested on: DU-145; assay: NCI 60 cell line panel (SRB), DU-145; conditions: Homo sapiens; DU-145, Prostate Cancer; single dose of 10 μM; read-out: Cell Growth Percent
[25] = tested on: SK-MEL-5; assay: NCI 60 cell line panel (SRB), SK-MEL-5; conditions: Homo sapiens; SK-MEL-5, Melanoma; single dose of 10 μM; read-out: Cell Growth Percent
[26] = tested on: NCI-H226; assay: NCI 60 cell line panel (SRB), NCI-H226; conditions: Homo sapiens; NCI-H226, Non-Small Cell Lung Cancer; single dose of 10 μM; read-out: Cell Growth Percent
[27] = tested on: CAKI-1; assay: NCI 60 cell line panel (SRB), CAKI-1; conditions: Homo sapiens; CAKI-1, Renal Cancer; single dose of 10 μM; read-out: Cell Growth Percent
[28] = tested on: SNB-75; assay: NCI 60 cell line panel (SRB), SNB-75; conditions: Homo sapiens; SNB-75, CNS Cancer; single dose of 10 μM; read-out: Cell Growth Percent
[29] = tested on: T-47D; assay: NCI 60 cell line panel (SRB), T-47D; conditions: Homo sapiens, T47D, Breast Cancer, single dose of 10 μM, read-out: Cell Growth Percent
[30] = tested on: HCC-2998; assay: NCI 60 cell line panel (SRB), HCC-2998; conditions: Homo sapiens; HCC-2998, Colon Cancer; single dose of 10 μM; read-out: Cell Growth Percent
[31] = tested on: MCF7; assay: NCI 60 cell line panel (SRB), MCF7; conditions: Homo sapiens; MCF7, Breast Cancer; single dose of 10 μM; read-out: Cell Growth Percent
[32] = tested on: SK-MEL-2; assay: NCI 60 cell line panel (SRB), SK-MEL-2; conditions: Homo sapiens; SK-MEL-2, Melanoma; single dose of 10 μM; read-out: Cell Growth Percent
[33] = tested on: SR; assay: NCI 60 cell line panel (SRB), SR; conditions: Homo sapiens, Leukemia, single dose of 10 μM, read-out: Cell Growth Percent
[34] = tested on: NCI-H522; assay: NCI 60 cell line panel (SRB), NCI-H522; conditions: Homo sapiens; NCI-H522, Non-Small Cell Lung Cancer; single dose of 10 μM; read-out: Cell Growth Percent
[35] = tested on: HL-60(TB); assay: NCI 60 cell line panel (SRB), HL-60(TB); conditions: Homo sapiens, Leukemia, single dose of 10 μM, read-out: Cell Growth Percent

O=C(Nc1ccccc1)Nc1ccc(Oc2ncnc3sc4c(c23)CCCC4)cc1 [Compound 21a]
activity at 10 µM [1]: 78.7% | activity at 10 µM [2]: 74.3% | activity at 10 µM [3]: 92% | activity at 10 µM [4]: 83.3% | activity at 10 µM [5]: 55.2% | activity at 10 µM [6]: 56.5% | activity at 10 µM [7]: 90.4% | activity at 10 µM [8]: 33.4% | activity at 10 µM [9]: 86.6% | activity at 10 µM [10]: 69.5% | activity at 10 µM [11]: 19.2% | activity at 10 µM [12]: 70.7% | activity at 10 µM [13]: 66.2% | activity at 10 µM [14]: 50.5% | activity at 10 µM [15]: 73.6% | activity at 10 µM [16]: 93.5% | activity at 10 µM [17]: 64.9% | activity at 10 µM [18]: 63.1% | activity at 10 µM [19]: 60.8% | activity at 10 µM [20]: 49.2% | activity at 10 µM [21]: 55.1% | activity at 10 µM [22]: 67.8% | activity at 10 µM [23]: 107% | activity at 10 µM [24]: 86.1% | activity at 10 µM [25]: 67.9% | activity at 10 µM [26]: 66.6% | activity at 10 µM [27]: 83.4% | activity at 10 µM [28]: 45.6% | activity at 10 µM [29]: 37.9% | activity at 10 µM [30]: 89.6% | activity at 10 µM [31]: 44.5% | activity at 10 µM [32]: 87.6% | activity at 10 µM [33]: 24.3% | activity at 10 µM [34]: 15.6% | activity at 10 µM [35]: 102%

CCOC(=O)c1c(C)oc2ncnc(Nc3ccc(C(=O)Nc4ccc(OC)cc4)cc3)c12 [Compound 14b]
activity at 10 µM [1]: 95.2% | activity at 10 µM [2]: 81.1% | activity at 10 µM [3]: 112% | activity at 10 µM [4]: 103% | activity at 10 µM [5]: 94.3% | activity at 10 µM [6]: 101% | activity at 10 µM [7]: 94.7% | activity at 10 µM [8]: 83.6% | activity at 10 µM [9]: 95.2% | activity at 10 µM [10]: 93.2% | activity at 10 µM [11]: 106% | activity at 10 µM [12]: 97% | activity at 10 µM [13]: 91% | activity at 10 µM [14]: 91.3% | activity at 10 µM [15]: 83.7% | activity at 10 µM [16]: 98.9% | activity at 10 µM [17]: 99.3% | activity at 10 µM [18]: 108% | activity at 10 µM [19]: 91.1% | activity at 10 µM [20]: 88.5% | activity at 10 µM [21]: 95.6% | activity at 10 µM [22]: 93.3% | activity at 10 µM [23]: 114% | activity at 10 µM [24]: 97.1% | activity at 10 µM [25]: 87.9% | activity at 10 µM [26]: 94.2% | activity at 10 µM [27]: 96.6% | activity at 10 µM [28]: 87.2% | activity at 10 µM [29]: 91% | activity at 10 µM [30]: 114% | activity at 10 µM [31]: 95.6% | activity at 10 µM [32]: 107% | activity at 10 µM [33]: 74.6% | activity at 10 µM [34]: 84% | activity at 10 µM [35]: 88.6%
